In ChEMBL document CHEMBL5058643, “Data for DCP probe BI-2081” (2022) one finds residual activity, activity and inhibition data, which are given here for two molecules.

Each structure is given as a SMILES string.

For data set [1], the target named is Adenosine receptor A2a (Homo sapiens) (UniProt P29274). As to the kind of experiment: A2A/H Eurofins SafetyScreen44 (BI). The note with it: filed as antagonist, Compound concentration 10.0 uM.
Data set [2] addresses T1, Alpha-2A adrenergic receptor (Homo sapiens) (UniProt P08913).
T1 sequence (whole entry): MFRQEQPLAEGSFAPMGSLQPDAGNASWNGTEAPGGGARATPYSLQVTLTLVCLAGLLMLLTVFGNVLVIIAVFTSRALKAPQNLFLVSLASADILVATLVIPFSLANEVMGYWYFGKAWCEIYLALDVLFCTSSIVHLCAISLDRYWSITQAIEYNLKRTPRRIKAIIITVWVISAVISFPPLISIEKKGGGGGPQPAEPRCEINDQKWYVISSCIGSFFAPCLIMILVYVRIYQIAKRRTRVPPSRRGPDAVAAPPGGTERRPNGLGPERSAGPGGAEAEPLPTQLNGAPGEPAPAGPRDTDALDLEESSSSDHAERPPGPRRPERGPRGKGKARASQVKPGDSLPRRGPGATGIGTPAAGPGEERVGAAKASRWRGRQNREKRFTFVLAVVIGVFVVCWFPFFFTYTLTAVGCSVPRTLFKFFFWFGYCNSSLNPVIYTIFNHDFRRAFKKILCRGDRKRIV
The data set can be described thus: ALPHA2A/HU Eurofins SafetyScreen44 (BI). As to conditions: Compound concentration 10.0 uM; call rule not given here.

For data set [3], the target named is hERG (KCNH2) (Homo sapiens, UniProt Q12809). The data set can be described thus: HERG_DOFETILIDE Eurofins SafetyScreen44 (BI). The arrangement: mode of action inhibitor. As to conditions: probe [3H] Dofetilide, compound concentration 10 uM, read-out: % Ctrl.
The target in data set [4] is T2, 5-hydroxytryptamine receptor 3A (Homo sapiens) (UniProt P46098).
T2 sequence (whole entry): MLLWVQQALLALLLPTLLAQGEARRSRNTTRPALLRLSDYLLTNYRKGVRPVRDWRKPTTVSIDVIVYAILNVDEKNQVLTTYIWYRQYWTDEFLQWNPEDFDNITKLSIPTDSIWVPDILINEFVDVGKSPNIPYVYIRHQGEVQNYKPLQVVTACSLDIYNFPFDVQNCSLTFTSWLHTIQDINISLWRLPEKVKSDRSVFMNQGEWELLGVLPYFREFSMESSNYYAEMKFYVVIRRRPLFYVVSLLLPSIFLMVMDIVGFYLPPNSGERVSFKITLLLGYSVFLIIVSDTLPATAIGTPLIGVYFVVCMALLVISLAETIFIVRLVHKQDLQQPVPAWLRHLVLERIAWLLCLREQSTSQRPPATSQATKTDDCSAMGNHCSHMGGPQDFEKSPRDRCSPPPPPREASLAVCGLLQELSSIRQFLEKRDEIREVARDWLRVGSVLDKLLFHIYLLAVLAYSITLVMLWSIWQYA
The data set can be described thus: 5HT3/H Eurofins SafetyScreen44 (BI). The note with it: Compound concentration 10.0 uM.

The target in data set [5] is Cannabinoid receptor 1 (Homo sapiens) (UniProt P21554). The data set can be described thus: CB1(HU)_AGON Eurofins SafetyScreen44 (BI). As to conditions: filed as agonist; Compound concentration 10.0 uM.
The target in data set [6] is Prostaglandin G/H synthase 2 (Homo sapiens) (UniProt P35354). The data set can be described thus: COX-2 Eurofins SafetyScreen44 (BI). As to conditions: Compound concentration 10.0 uM.
Data set [7] deals with Histamine H3 receptor (Homo sapiens) (UniProt Q9Y5N1). As to the kind of experiment: H3/H Eurofins SafetyScreen44 (BI). As to conditions: Compound concentration 10.0 uM.
The target in data set [8] is Gastrin/cholecystokinin type B receptor (Homo sapiens) (UniProt P32239). The data set can be described thus: CCKB/H Eurofins SafetyScreen44 (BI). As to conditions: Compound concentration 10.0 uM.
Data set [9] concerns the target T3, 5-hydroxytryptamine receptor 1A (Homo sapiens) (UniProt P08908).
T3 sequence (whole entry): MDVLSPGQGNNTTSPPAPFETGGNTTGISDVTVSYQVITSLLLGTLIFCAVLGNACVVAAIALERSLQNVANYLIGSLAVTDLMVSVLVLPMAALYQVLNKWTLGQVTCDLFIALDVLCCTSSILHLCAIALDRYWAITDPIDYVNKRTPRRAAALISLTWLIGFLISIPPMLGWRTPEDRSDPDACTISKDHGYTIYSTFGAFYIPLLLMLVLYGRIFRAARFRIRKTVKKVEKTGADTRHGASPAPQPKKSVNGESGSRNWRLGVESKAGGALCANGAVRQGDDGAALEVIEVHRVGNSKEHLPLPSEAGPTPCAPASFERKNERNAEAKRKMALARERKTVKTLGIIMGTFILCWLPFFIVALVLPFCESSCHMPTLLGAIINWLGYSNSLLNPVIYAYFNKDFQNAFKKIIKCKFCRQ
As to the kind of experiment: 5HT1A/HU Eurofins SafetyScreen44 (BI). As to conditions: Compound concentration 10.0 uM.

Data set [10] concerns the target D(3) dopamine receptor (Homo sapiens) (UniProt P35462). As to the kind of experiment: D3/HU Eurofins SafetyScreen44 (BI). As to conditions: Compound concentration 10.0 uM.
Data set [11] deals with Glutamate receptor ionotropic, NMDA 2A (Rattus norvegicus) (UniProt Q00959). As to the kind of experiment: NMDAPHSI/R Eurofins SafetyScreen44 (BI). As to conditions: Compound concentration 10.0 uM.
Data set [12] deals with T4, Voltage-dependent L-type calcium channel subunit alpha-1C (Rattus norvegicus, UniProt P22002). As to the kind of experiment: CA+/DHPSI/RA Eurofins SafetyScreen44 (BI). As to conditions: compound concentration 10 uM, read-out: % Ctrl.
Data set [13] concerns the target Acetylcholine receptor subunit alpha (Homo sapiens) (UniProt P02708). As to the kind of experiment: NACH/H Eurofins SafetyScreen44 (BI). The note with it: Compound concentration 10.0 uM.
Data set [14] addresses Epidermal growth factor receptor (Homo sapiens) (UniProt P00533). As to the kind of experiment: EGF/HU Eurofins SafetyScreen44 (BI). As to conditions: Compound concentration 10.0 uM.
Data set [15] concerns the target 5-hydroxytryptamine receptor 2B (Homo sapiens) (UniProt P41595). The note with it: Compound concentration 10.0 uM.
Data set [16] has as its target T2, 5-hydroxytryptamine receptor 3A (Homo sapiens). As to the kind of experiment: 5HT3/HU Eurofins SafetyScreen44 (BI). The note with it: Compound concentration 10.0 uM.
The target of data set [17] is Histamine H1 receptor (Homo sapiens) (UniProt P35367). As to the kind of experiment: H1/H Eurofins SafetyScreen44 (BI).
Data set [18] deals with Prostaglandin E2 receptor EP4 subtype (Homo sapiens) (UniProt P35408). The data set can be described thus: PEP4_HU Eurofins SafetyScreen44 (BI).
In data set [19] the target is T4, Voltage-dependent L-type calcium channel subunit alpha-1C. As to the kind of experiment: CA+/DILSI/RA Eurofins SafetyScreen44 (BI). The note with it: compound concentration 10 uM, read-out: % Ctrl.

Sequence of Histamine H1 receptor (Homo sapiens) (P35367 whole entry): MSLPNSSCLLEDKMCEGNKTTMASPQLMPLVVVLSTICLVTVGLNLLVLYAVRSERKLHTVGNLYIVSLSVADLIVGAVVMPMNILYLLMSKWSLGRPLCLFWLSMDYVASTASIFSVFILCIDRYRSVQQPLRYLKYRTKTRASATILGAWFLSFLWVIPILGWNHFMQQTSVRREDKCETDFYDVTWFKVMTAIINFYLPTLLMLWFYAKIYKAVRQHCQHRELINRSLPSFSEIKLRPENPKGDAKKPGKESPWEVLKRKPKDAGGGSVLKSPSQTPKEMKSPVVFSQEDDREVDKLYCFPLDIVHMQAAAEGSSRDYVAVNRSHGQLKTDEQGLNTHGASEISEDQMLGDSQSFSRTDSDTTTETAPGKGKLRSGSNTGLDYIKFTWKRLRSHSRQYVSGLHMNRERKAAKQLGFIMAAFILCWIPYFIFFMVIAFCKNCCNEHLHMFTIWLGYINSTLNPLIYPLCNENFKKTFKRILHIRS
Sequence of Prostaglandin E2 receptor EP4 subtype (Homo sapiens) (P35408 whole entry): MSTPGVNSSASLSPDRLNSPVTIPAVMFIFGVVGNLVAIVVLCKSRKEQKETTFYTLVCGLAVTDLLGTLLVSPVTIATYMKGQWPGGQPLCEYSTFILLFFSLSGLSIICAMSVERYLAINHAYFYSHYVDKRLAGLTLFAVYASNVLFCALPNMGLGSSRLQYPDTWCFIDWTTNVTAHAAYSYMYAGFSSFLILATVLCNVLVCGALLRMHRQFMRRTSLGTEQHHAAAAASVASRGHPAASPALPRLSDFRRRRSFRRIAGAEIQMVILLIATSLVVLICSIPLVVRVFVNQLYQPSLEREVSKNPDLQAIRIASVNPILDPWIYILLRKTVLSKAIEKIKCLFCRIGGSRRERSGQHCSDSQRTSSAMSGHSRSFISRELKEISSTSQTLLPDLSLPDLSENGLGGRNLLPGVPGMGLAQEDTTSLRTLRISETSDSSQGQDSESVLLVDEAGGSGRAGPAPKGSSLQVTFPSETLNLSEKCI
T4 sequence (P22002 whole entry): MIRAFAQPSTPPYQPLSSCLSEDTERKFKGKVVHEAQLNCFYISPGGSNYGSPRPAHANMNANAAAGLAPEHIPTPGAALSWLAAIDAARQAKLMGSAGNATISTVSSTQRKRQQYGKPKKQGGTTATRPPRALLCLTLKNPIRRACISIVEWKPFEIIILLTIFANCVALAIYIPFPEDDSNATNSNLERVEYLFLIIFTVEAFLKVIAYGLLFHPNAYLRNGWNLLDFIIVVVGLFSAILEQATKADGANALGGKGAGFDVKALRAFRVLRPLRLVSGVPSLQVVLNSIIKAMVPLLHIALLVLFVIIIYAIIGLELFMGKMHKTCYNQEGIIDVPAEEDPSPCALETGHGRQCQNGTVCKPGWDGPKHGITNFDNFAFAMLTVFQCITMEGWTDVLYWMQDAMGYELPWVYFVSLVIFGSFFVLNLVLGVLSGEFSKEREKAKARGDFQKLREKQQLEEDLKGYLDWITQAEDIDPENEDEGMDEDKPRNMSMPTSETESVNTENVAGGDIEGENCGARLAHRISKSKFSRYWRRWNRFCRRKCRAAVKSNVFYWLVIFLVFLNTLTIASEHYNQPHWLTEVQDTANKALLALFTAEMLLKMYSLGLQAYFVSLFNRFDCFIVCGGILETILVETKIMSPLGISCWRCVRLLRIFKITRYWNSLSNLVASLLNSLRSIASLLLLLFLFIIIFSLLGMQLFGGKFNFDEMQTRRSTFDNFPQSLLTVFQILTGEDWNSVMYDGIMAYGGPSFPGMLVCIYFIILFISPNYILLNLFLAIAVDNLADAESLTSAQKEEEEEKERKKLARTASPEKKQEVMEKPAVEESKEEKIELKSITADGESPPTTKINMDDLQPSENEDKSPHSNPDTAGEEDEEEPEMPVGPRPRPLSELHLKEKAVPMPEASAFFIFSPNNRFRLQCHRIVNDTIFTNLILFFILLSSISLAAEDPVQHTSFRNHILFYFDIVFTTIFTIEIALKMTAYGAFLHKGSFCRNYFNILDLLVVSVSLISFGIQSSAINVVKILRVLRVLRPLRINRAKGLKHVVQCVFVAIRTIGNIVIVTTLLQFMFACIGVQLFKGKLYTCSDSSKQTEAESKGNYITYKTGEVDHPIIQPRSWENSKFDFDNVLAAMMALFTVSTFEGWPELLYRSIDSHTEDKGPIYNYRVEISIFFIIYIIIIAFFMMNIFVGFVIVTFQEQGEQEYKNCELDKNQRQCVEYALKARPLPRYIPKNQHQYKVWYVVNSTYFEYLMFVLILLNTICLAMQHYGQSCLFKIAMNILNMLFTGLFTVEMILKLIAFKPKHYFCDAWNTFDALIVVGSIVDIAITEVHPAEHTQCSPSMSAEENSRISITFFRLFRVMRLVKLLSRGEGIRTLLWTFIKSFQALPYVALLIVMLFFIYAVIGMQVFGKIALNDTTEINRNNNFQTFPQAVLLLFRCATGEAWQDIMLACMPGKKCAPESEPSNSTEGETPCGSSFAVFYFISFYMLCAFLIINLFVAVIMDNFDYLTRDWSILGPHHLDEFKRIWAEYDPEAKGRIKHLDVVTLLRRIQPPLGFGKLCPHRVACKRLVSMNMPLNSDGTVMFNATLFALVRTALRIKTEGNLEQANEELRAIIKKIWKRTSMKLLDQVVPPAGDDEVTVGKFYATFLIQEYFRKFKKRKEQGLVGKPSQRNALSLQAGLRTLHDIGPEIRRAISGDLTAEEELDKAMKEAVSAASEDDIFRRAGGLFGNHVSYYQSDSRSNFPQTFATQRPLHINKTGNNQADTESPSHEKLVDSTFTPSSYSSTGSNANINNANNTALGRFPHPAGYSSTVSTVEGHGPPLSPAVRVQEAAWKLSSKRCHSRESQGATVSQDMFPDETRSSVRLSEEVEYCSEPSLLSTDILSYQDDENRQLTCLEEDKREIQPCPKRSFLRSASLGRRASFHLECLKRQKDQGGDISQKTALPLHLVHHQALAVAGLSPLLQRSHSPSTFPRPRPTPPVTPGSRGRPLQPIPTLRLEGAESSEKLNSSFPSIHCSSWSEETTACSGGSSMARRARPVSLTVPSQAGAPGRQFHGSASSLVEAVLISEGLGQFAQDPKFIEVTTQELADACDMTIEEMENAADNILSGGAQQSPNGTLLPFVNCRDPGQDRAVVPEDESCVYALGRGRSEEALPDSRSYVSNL
Sequence of 5-hydroxytryptamine receptor 2B (Homo sapiens) (P41595 whole entry): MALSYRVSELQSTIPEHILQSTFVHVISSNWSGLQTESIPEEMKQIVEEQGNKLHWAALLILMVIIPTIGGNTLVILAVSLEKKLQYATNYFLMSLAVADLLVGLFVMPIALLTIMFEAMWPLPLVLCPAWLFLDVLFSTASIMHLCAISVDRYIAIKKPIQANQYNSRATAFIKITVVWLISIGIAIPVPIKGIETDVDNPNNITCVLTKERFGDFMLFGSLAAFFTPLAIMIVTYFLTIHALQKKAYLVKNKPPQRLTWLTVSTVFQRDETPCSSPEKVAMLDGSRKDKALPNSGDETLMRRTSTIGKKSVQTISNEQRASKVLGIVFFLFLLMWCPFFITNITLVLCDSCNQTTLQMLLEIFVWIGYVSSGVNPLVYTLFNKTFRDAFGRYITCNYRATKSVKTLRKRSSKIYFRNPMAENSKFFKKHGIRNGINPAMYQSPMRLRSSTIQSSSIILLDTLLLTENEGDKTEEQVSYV
Sequence of Acetylcholine receptor subunit alpha (Homo sapiens) (P02708 whole entry): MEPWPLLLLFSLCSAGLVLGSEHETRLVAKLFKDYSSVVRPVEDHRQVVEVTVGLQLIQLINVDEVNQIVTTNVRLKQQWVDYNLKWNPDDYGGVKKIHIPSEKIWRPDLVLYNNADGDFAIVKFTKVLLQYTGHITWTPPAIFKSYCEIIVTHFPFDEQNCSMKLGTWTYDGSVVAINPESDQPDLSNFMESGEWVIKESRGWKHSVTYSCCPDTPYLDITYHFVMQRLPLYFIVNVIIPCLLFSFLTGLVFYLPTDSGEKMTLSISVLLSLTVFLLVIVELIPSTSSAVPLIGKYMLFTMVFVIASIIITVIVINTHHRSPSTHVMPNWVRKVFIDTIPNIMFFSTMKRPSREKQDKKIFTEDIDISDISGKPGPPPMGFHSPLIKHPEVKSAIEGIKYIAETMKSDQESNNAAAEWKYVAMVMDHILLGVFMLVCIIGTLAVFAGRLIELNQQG
Sequence of D(3) dopamine receptor (Homo sapiens) (P35462 whole entry): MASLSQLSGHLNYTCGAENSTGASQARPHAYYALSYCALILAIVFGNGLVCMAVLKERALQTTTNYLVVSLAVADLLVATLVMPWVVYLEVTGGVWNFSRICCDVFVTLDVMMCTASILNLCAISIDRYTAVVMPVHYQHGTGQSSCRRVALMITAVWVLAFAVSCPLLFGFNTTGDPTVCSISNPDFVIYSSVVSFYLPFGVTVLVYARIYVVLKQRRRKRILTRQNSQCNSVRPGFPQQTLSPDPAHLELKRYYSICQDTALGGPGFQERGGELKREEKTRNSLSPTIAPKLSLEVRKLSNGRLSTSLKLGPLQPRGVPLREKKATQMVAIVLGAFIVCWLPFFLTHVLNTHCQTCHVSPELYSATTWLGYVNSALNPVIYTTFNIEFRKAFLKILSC
Sequence of Gastrin/cholecystokinin type B receptor (Homo sapiens) (P32239 whole entry): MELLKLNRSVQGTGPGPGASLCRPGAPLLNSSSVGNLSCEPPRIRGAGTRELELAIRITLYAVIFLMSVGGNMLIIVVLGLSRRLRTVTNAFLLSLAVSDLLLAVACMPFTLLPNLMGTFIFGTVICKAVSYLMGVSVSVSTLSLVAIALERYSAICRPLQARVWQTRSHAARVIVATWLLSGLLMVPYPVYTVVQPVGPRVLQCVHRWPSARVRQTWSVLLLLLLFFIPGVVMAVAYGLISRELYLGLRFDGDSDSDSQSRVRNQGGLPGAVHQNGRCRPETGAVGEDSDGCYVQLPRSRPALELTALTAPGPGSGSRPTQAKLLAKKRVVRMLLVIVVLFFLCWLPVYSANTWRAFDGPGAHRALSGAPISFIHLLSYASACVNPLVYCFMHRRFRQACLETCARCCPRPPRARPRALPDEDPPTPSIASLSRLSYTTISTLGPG

On to `COCCCS(=O)(=O)c1cc(C)c(-c2ccc(F)c3c2CC[C@H]3Oc2ccc3c(c2)OC[C@H]3CC(=O)O)c(C)c1`, for which the residual activity in data set [1] was 102%; in data set [2], 94%; in data set [4], 106%; in data set [5], 102%; in data set [6], 81%. Further, the activity at 10 µM in data set [3] was 93% (not active).

What is called inhibition is the relative decrease from the control value, in per cent. Regarding `Cc1cc(OCCC(C)(C)O)cc(C)c1-c1ccc(F)c2c1CC[C@H]2Oc1ccc2c(c1)OC[C@H]2CC(=O)O`, the residual activity is 111% in data set [7]; 96% in data set [8]; 118% in [9]; 63% in data set [10]; 103% in data set [11]; 115% in data set [13]. In addition, the residual activity in data set [14] was 99%; in data set [16] it was 100%; in data set [17] (Compound concentration 0.3 uM), 90%; in data set [17] (Compound concentration 1.0 uM), 87%; in data set [17] (Compound concentration 3.0 uM), 68%; in data set [17] (Compound concentration 10.0 uM), 39%. The residual activity in [17] (Compound concentration 30.0 uM) is 17%; in data set [18] (Compound concentration 0.3 uM), 102%; in [18] (Compound concentration 1.0 uM), 108%; in data set [18] (Compound concentration 3.0 uM), 92%; in data set [18] (Compound concentration 10.0 uM), 55%; in data set [18] (Compound concentration 30.0 uM) it was 11%. The activity at 10 µM in data set [12] is on record as 90% (not active); in data set [19], 100% (not active). Also, the inhibition in [15] is 3.41%.
